In general, Ki refers to a measure of affinity in units of concentration, obtained from inhibition or displacement. High values mean lower affinity, low ones higher affinity.

This note sets out measurements from BindingDB's records for doi:10.1021/jm00154a024 (1986).

This assay can be described thus: The compound was tested for the inhibition of alanine racemase from Pseudomonas aeruginosa.

Compound `CCC(=N)P(=O)(O)O` returned a Ki of 8.5 mM.
